Values joined by “and” are separate entries in the source; they are usually repeats but may differ in a detail not shown here. Identical values can stand only once. Toxic doses and inconclusive results are not listed. Peptide text beside a SMILES is read from it.
Tested on: L1210 leukemia ip in BDF1 mice, survival T/C
Test: NCI In Vivo Anticancer Drug Screen. Data for tumor model L1210 Leukemia (intraperitoneal) in B6D2F1 (BDF1) mice
Conditions: endpoint: mean survival time, higher = longer survival
Method in brief: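 Mice bearing the transplanted tumor received compound or vehicle. Survival of the treated group was divided by that of the vehicle-treated control group to give the ratio.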

[1] = dose: 100.0 mg/kg/injection, schedule: Q01DX001 (ip), vehicle: other
[2] = dose: 50.0 mg/kg/injection, schedule: Q01DX009 (ip), vehicle: saline
[3] = dose: 100.0 mg/kg/injection, schedule: Q01DX009 (ip), vehicle: saline
[4] = dose: 100.0 mg/kg/injection, schedule: Q04DX003 (ip), vehicle: saline with Tween-80
[5] = dose: 100.0 mg/kg/injection, schedule: Q01DX009 (ip), vehicle: saline sonified
[6] = dose: 200.0 mg/kg/injection, schedule: Q01DX009 (ip), vehicle: saline sonified
[7] = dose: 400.0 mg/kg/injection, schedule: Q01DX009 (ip), vehicle: saline sonified
[8] = dose: 100.0 mg/kg/injection, schedule: Q04DX003 (ip), vehicle: Klucel (hydroxypropylcellulose) (HPC)
[9] = dose: 200.0 mg/kg/injection, schedule: Q04DX003 (ip), vehicle: Klucel (hydroxypropylcellulose) (HPC)
[10] = dose: 25.0 mg/kg/injection, schedule: Q01DX009 (ip), vehicle: other
[11] = dose: 50.0 mg/kg/injection, schedule: Q01DX009 (ip), vehicle: other
[12] = dose: 100.0 mg/kg/injection, schedule: Q01DX009 (ip), vehicle: other

For `OCC(O)C(O)C(O)C(Sc1ccccc1)Sc1ccccc1` (configuration not stated), the T/C (dose: 75.0 mg/kg/injection, schedule: Q01DX001 (ip), vehicle: saline) was 97 % of control, the T/C [1] was 95 % of control and the T/C (dose: 150.0 mg/kg/injection, schedule: Q01DX001 (ip), vehicle: saline) was 102 % of control. The T/C (dose: 200.0 mg/kg/injection, schedule: Q01DX001 (ip), vehicle: other) was 101 % of control, the T/C (dose: 300.0 mg/kg/injection, schedule: Q01DX001 (ip), vehicle: saline) was 102 % of control and the T/C (dose: 400.0 mg/kg/injection, schedule: Q01DX001 (ip), vehicle: other) was 97 % of control.

For `CCOC(OCC)c1cc[n+](CCc2ccc(OC)c(OC)c2)cc1`, the T/C (dose: 25.0 mg/kg/injection, schedule: Q01DX009 (ip), vehicle: saline) was 101 % of control, the T/C (dose: 25.0 mg/kg/injection, schedule: Q04DX003 (ip), vehicle: saline with Tween-80) was 95 % of control and the T/C [2] was 101 % of control. For the same molecule, the T/C (dose: 50.0 mg/kg/injection, schedule: Q04DX003 (ip), vehicle: saline with Tween-80) was 88 % of control, the T/C [3] was 98 % of control and the T/C [4] was 95 % of control.

For `Nc1c2ccccc2c[n+]2ccccc12`, the T/C [2] was 150 % of control and the T/C [3] was 163 % of control.

In the case of `CCOC(=O)C1(C)CCCC1=O` (configuration not stated), the T/C [5] is reported as 94 % of control, the T/C [6] is reported as 97 % of control and the T/C [7] is reported as 95 % of control.

`CC(=O)Nc1cccc(Cl)c1C` was tested, and the T/C [5] was 97 % of control, the T/C (dose: 100.0 mg/kg/injection, schedule: Q04DX003 (ip), vehicle: saline sonified) was 95 % of control and the T/C [6] was 91 % of control. For the same molecule, the T/C (dose: 200.0 mg/kg/injection, schedule: Q04DX003 (ip), vehicle: saline sonified) was 95 % of control, the T/C [7] was 91 % of control and the T/C (dose: 400.0 mg/kg/injection, schedule: Q04DX003 (ip), vehicle: saline sonified) was 97 % of control.

For `N#Cc1ccc(O)c(-c2ccccn2)c1`, the T/C [8] was 94 % of control, the T/C [9] was 93 % of control and the T/C (dose: 400.0 mg/kg/injection, schedule: Q04DX003 (ip), vehicle: Klucel (hydroxypropylcellulose) (HPC)) was 94 % of control.

`COc1cc(C=O)ccc1OC(=O)Nc1ccc(F)c([N+](=O)[O-])c1` was tested, and the T/C [10] was 97 % of control, the T/C [11] was 92 % of control and the T/C [12] was 97 % of control and 98 % of control.

With `CCn1c2ccccc2c2cc(C=O)ccc21` the T/C [10] was 95 % of control, the T/C [11] was 98 % of control and 106 % of control and the T/C [12] was 88 % of control. The T/C (dose: 200.0 mg/kg/injection, schedule: Q01DX009 (ip), vehicle: other) was 94 % of control.

In the case of `NC(=O)C(CCCN=C(N)N)NC(=O)CNC(=O)C(N)CO` (stereo not drawn) (H-Ser-Gly-Arg-NH2; configuration not given here), the T/C (dose: 25.0 mg/kg/injection, schedule: Q04DX002 (ip), vehicle: Klucel (hydroxypropylcellulose) (HPC)) is reported as 103 % of control, the T/C (dose: 50.0 mg/kg/injection, schedule: Q04DX002 (ip), vehicle: Klucel (hydroxypropylcellulose) (HPC)) is reported as 106 % of control and the T/C (dose: 100.0 mg/kg/injection, schedule: Q04DX002 (ip), vehicle: Klucel (hydroxypropylcellulose) (HPC)) is reported as 100 % of control.

For `O=C(N/N=C/c1ccc(N(CCCl)CCCl)cc1)c1ccc(C(=O)N/N=C/c2ccc(N(CCCl)CCCl)cc2)cc1`, the T/C (dose: 50.0 mg/kg/injection, schedule: Q01DX009 (ip), vehicle: Klucel (hydroxypropylcellulose) (HPC)) was 98 % of control, the T/C (dose: 100.0 mg/kg/injection, schedule: Q01DX009 (ip), vehicle: Klucel (hydroxypropylcellulose) (HPC)) was 90 % of control and the T/C [8] was 95 % of control. The T/C [9] was 100 % of control.

For `Nc1nc2ncc(CNc3ncc(C(=O)NC(CCC(=O)O)C(=O)O)s3)nc2c(=O)[nH]1` (configuration not stated), the T/C (dose: 50.0 mg/kg/injection, schedule: Q01DX001 (ip), vehicle: other) was 105 % of control and the T/C [1] was 106 % of control.

For `CC(=O)c1cccc(NC(=S)NC(=O)/C=C/c2ccccc2)c1`, the T/C (dose: 50.0 mg/kg/injection, schedule: Q01DX009 (ip), vehicle: saline with Tween-80) was 92 % of control, the T/C (dose: 100.0 mg/kg/injection, schedule: Q01DX009 (ip), vehicle: saline with Tween-80) was 94 % of control and the T/C [4] was 100 % of control. The T/C (dose: 200.0 mg/kg/injection, schedule: Q04DX003 (ip), vehicle: saline with Tween-80) was 103 % of control.

In the case of `COC(OC)c1[nH]c(=O)[nH]c(=O)c1F.[Hg]`, the T/C (dose: 3.0 mg/kg/injection, schedule: Q01DX009 (ip), vehicle: saline) is reported as 97 % of control, the T/C (dose: 6.0 mg/kg/injection, schedule: Q01DX009 (ip), vehicle: saline) is reported as 97 % of control and the T/C (dose: 12.0 mg/kg/injection, schedule: Q04DX003 (ip), vehicle: saline) is reported as 98 % of control.

From PubChem BioAssay AID248 (DTP/NCI, 2004)
